Activity calls are given as the source filed them. The rule behind the calls is not given here.
Key:
[1] = Binding affinity to recombinant E6AP HECT domain (unknown origin) expressed in BL21 cells by fluorescence polarization assay; set-up: species or system Homo sapiens
Homo sapiens [2] = species on record: Homo sapiens; assay: Activation of wild type N-terminal Flag-tagged E6AP HECT domain (unknown origin) self-ubiquitination assessed as increase in formation of polyubiquitinated HECT in presence of wild type HA-tagged UB at 10 to 100 uM preincubated for 30 mins followed by UB addition incubated for 2 hrs by SDS PAGE based Western blot analysis; conditions: dose 10-100 µM, time 150.0 min
Homo sapiens [3] = species on record: Homo sapiens; assay: Activation of full length E6AP (unknown origin) self-ubiquitination at 100 uM preincubated for 30 mins followed by UB addition incubated for 2 hrs by SDS PAGE based Western blot analysis
Homo sapiens [4] = species on record: Homo sapiens; assay: Activation of wild type N-terminal Flag-tagged E6AP (unknown origin) mediated UbxD8 substrate ubiquitination in presence of Uba1/Ubch7 at 10 to 100 uM preincubated for 30 mins followed by UB addition incubated for 2 hrs by SDS PAGE based Western blot analysis; conditions: dose 10-100 µM, time 2.5 hrs
Homo sapiens [5] = species on record: Homo sapiens; assay: Activation of wild type N-terminal Flag-tagged E6AP (unknown origin) mediated ubiquitination of p53 substrate at 10 to 100 uM in presence of […] E6 and Uba1/Ubch7 preincubated for 30 min followed by UB addition incubated for 2 hrs by SDS PAGE based Western blot analysis; conditions: dose 10-100 µM, time 150.0 min
Homo sapiens [6] = species on record: Homo sapiens; assay: Activation of wild type N-terminal Flag-tagged E6AP HECT domain (unknown origin) self-ubiquitination in presence of wild type HA-tagged UB at 5 uM preincubated for 30 mins followed by UB addition incubated for 2 hrs by SDS PAGE based Western blot analysis; conditions: filed as activator, time 150.0 min
Homo sapiens [7] = species on record: Homo sapiens; assay: Activation of E6AP (unknown origin) self-ubiquination in presence of wild type HA-tagged UB at 5 uM preincubated for 30 mins followed by UB addition incubated for 2 hrs by SDS PAGE based Western blot analysis; conditions: filed as activator, time 150.0 min
Homo sapiens [8] = species on record: Homo sapiens; assay: Activation of wild type N-terminal Flag-tagged E6AP (unknown origin) mediated UbxD8 substrate ubiquitination in presence of Uba1/Ubch7 preincubated for 30 mins followed by UB addition incubated for 2 hrs by SDS PAGE based Western blot analysis; conditions: filed as activator, time 2.5 hrs
Homo sapiens [9] = species on record: Homo sapiens; assay: Activation of wild type N-terminal Flag-tagged E6AP (unknown origin) mediated HHR23A substrate ubiquitination in presence of Uba1/Ubch7 preincubated for 30 mins followed by UB addition incubated for 2 hrs by SDS PAGE based Western blot analysis; conditions: filed as activator, dose 1-100 µM, time 150.0 min
Homo sapiens [10] = species on record: Homo sapiens; assay: Activation of wild type N-terminal Flag-tagged E6AP (unknown origin) mediated beta-catenin substrate ubiquitination in presence of Uba1/Ubch7 preincubated for 30 mins followed by UB addition incubated for 2 hrs by SDS PAGE based Western blot analysis; conditions: filed as activator, dose 1-100 µM, time 150.0 min
HEK293T [11] = assay: Activation of E6AP (unknown origin) in HEK293T cells assessed as increase in ubiquitination level of UbxD8 substrate at 25 to 50 uM preincubated for 14 hrs followed by addition of MG132 incubated for 12 hrs by SDS PAGE based Western blot analysis; format: cell-based; conditions: Homo sapiens, filed as activator, dose 25-50 µM, time 26.0 hrs
HEK293T [12] = assay: Activation of E6AP (unknown origin) mediated HHR23A substrate ubiquitination in HEK293T cells at 25 to 50 uM preincubated for 14 hrs followed by addition of MG132 incubated for 12 hrs by SDS PAGE based Western blot analysis; format: cell-based; conditions: Homo sapiens, filed as activator, dose 25-50 µM, time 26.0 hrs
HEK293T [13] = assay: Activation of E6AP mediated UbxD8 degradation in HEK293T cells at 50 uM preincubated for 14 hrs followed by CHX addition by cycloheximide chase assay; format: cell-based; conditions: Homo sapiens, filed as activator
HEK293T [14] = assay: Activation of E6AP mediated HHR23A degradation in HEK293T cells at 50 uM preincubated for 14 hrs followed by CHX addition by cycloheximide chase assay; format: cell-based; conditions: Homo sapiens, filed as activator
[15] = Stability of the compound in ammonium bicarbonate buffer at pH 7.8 assessed as pronase (unknown origin)-mediated drug degradation for 24 hrs by HPLC-MS analysis; format: ADME; conditions: human, pH 7.8, 24 h
[16] = Stability of the compound in human serum for 24 hrs by HPLC-MS analysis; format: ADME, cell-free
Homo sapiens [17] = species on record: Homo sapiens; assay: Activation of wild type N-terminal Flag-tagged E6AP HECT domain (unknown origin) self-ubiquitination in presence of Uba1 at 5 uM preincubated for 30 mins followed by UB addition incubated for 2 hrs by SDS PAGE based Western blot analysis; conditions: filed as activator, time 2.5 hrs
Homo sapiens [18] = species on record: Homo sapiens; assay: Activation of E6AP (unknown origin) self-ubiquination in presence of Uba1 at 5 uM preincubated for 30 mins followed by UB addition incubated for 2 hrs by SDS PAGE based Western blot analysis; conditions: filed as activator, time 2.5 hrs
Homo sapiens [19] = species on record: Homo sapiens; assay: Activation of wild type N-terminal Flag-tagged E6AP HECT domain (unknown origin) self-ubiquitination in presence of UbcH7 at 5 uM preincubated for 30 mins followed by UB addition incubated for 2 hrs by SDS PAGE based Western blot analysis; conditions: filed as activator, time 2.5 hrs
Homo sapiens [20] = species on record: Homo sapiens; assay: Activation of E6AP (unknown origin) self-ubiquination in presence of UbcH7 at 5 uM preincubated for 30 mins followed by UB addition incubated for 2 hrs by SDS PAGE based Western blot analysis; conditions: filed as activator, time 2.5 hrs
HEK293T [21] = assay: Activation of E6AP mediated HHR23A degradation in HEK293T cells at 1 to 5 uM preincubated for 14 hrs followed by CHX addition by cycloheximide chase assay; format: cell-based; conditions: Homo sapiens, filed as activator, dose 1-5 µM

SMILES	Kd ([1]; read-out: Kd) [µM]	Activity (Homo sapiens [2])	Activity (Homo sapiens [3])	Activity (Homo sapiens [4])	Activity (Homo sapiens [5])	also measured
CC(C)C[C@H]1CN(CC(N)=O)C(=O)CCSCc2ccc(cc2)C(=O)N[C@@H](Cc2ccccc2)CN(C(=O)Cc2ccc3ccccc3c2)CC(=O)N[C@@H](CC(C)C)CN(C(=O)CCC2CCCCC2)CC(=O)N[C@@H](Cc2ccccc2)CN(C(=O)Cc2ccc3c(c2)OCO3)CC(=O)N1	0.0822	inactive	inactive	inactive	inactive	–
C[C@H]1CN(C(=O)Cc2ccc3c(c2)OCO3)CC(=O)N[C@@H](Cc2ccccc2)CN(C(=O)Cc2ccc3ccccc3c2)CC(=O)N[C@@H](CCC(=O)O)CN(C(=O)CC2CC2)CC(=O)N[C@@H](Cc2ccccc2)CN(CC(N)=O)C(=O)CCSCc2ccc(cc2)C(=O)N1	0.171	inactive	inactive	inactive	inactive	–
COc1cc(CC(=O)N2CC(=O)N[C@@H](Cc3ccccc3)CN(C(=O)CC3CC3)CC(=O)N[C@@H](CC(C)C)CN(CC(N)=O)C(=O)CCSCc3ccc(cc3)C(=O)N[C@@H](CCCCN)CN(C(=O)Cc3ccc4ccccc4c3)CC(=O)N[C@@H](CC(C)C)C2)cc(OC)c1	0.218	–	–	–	inactive	Activity (Homo sapiens [2]; filed as activator): Active; Activity (Homo sapiens [3]; filed as activator): Active; Activity (Homo sapiens [6]): Active; Activity (Homo sapiens [7]): Active; Activity (Homo sapiens [4]; filed as activator): Active; Activity (Homo sapiens [8]): Dose-Dependent Effect; Activity (Homo sapiens [9]): Dose-Dependent Effect; Activity (Homo sapiens [10]): Dose-Dependent Effect; Activity (HEK293T [11]): Active; Activity (HEK293T [12]): Active; Activity (HEK293T [13]): Active; Activity (HEK293T [14]): Active; Stability [15]: Stable; Stability [16]: Stable; Activity (Homo sapiens [17]): Active; Activity (Homo sapiens [18]): Active; Activity (Homo sapiens [19]): Active; Activity (Homo sapiens [20]): Active; Activity (HEK293T [21]): Active
CC(C)C[C@H]1CN(CC(N)=O)C(=O)CCSCc2ccc(cc2)C(=O)N[C@@H](C)CN(C(=O)Cc2ccc3ccccc3c2)CC(=O)N[C@@H](CC(C)C)CN(C(=O)CCc2ccccc2)CC(=O)N[C@@H](Cc2ccccc2)CN(C(=O)Cc2ccc3c(c2)OCO3)CC(=O)N1	0.187	inactive	inactive	inactive	inactive	–
COc1cc(CC(=O)N2CC(=O)N[C@@H](C)CN(C(=O)Cc3cc(OC)cc(OC)c3)CC(=O)N[C@@H](CC(C)C)CN(CC(N)=O)C(=O)CCSCc3ccc(cc3)C(=O)N[C@@H](Cc3ccccc3)CN(C(=O)Cc3ccc4c(c3)OCO4)CC(=O)N[C@@H](Cc3ccccc3)C2)cc(OC)c1	0.0834	inactive	inactive	inactive	inactive	–
CC(C)C[C@H]1CN(C(=O)Cc2ccc3c(c2)OCO3)CC(=O)N[C@@H](CCC(=O)O)CN(C(=O)CCC2CCCCC2)CC(=O)N[C@@H](C)CN(C(=O)CCC(=O)O)CC(=O)N[C@@H](Cc2ccccc2)CN(CC(N)=O)C(=O)CCSCc2ccc(cc2)C(=O)N1	–	inactive	inactive	inactive	inactive	Kd [1]: Not Active
COc1cc(CC(=O)N2CC(=O)N[C@@H](Cc3ccccc3)CN(C(=O)CC3CC3)CC(=O)N[C@@H](CC(C)C)CN(CC(N)=O)C(=O)CCSCc3ccc(cc3)C(=O)N[C@@H](CCC(=O)O)CN(C(=O)Cc3ccc4c(c3)OCO4)CC(=O)N[C@@H](CC(C)C)C2)cc(OC)c1	0.162	inactive	inactive	inactive	inactive	–
C[C@H]1CN(C(=O)CCC(=O)O)CC(=O)N[C@@H](Cc2ccccc2)CN(CC(N)=O)C(=O)CCSCc2ccc(cc2)C(=O)N[C@@H](C)CN(C(=O)Cc2ccc3c(c2)OCO3)CC(=O)N[C@@H](CCC(=O)O)CN(C(=O)CC2CC2)CC(=O)N1	–	inactive	inactive	inactive	inactive	Kd [1]: Not Active

Source: ChEMBL document CHEMBL5042525, “Activation of E6AP/UBE3A-Mediated Protein Ubiquitination and Degradation Pathways by a Cyclic γ-AA Peptide” (J Med Chem, 2022)
